Reference: patent US12071469B2, “Peptide compounds for suppressing inflammation” (Duke University, priority 2011, dated 2024)
Entries after “also recorded” stand apart in the source; their conditions may differ.

Columns and labels:
[1] = test system: mice with intracerebral hemorrhage; experiment: Rotorod vestibulomotor function after intracerebral hemorrhage (collagenase injection); format: in vivo, mouse; details: 0.05 mg/kg iv at 2 h and 6 h after intracerebral hemorrhage
Method: An experimental murine model for intracerebral hemorrhage was also provided. James, et al. (2009) Stroke, 40:632-39. Male mice (age 16-20 weeks) were anesthetized with 4.6% isoflurane in oxygen in an anesthesia induction box for 90 seconds. The trachea was intubated and the lungs mechanically ventilated with 1.6% isoflurane in a 70/30 mixture of nitrogen/oxygen. Body temperature was maintained at 37° C. using an underbody warming system. The animal's head was secured in a stereotactic frame, local anesthetic was injected, and the scalp incised. […]
An experimental procedure for measuring neurological deficits was developed. […] The average time to fall from the rotating cylinder in the latter three trials was recorded as baseline latency. […] Average latency to fall from the rod was recorded, and mice unable to grip the rod were scored with a latency of 0 seconds.
Groups of mice received either an ApoE mimetic peptide (SEQ ID NO:4; 0.05 mg/kg) or carrier (saline) by intravenous tail vein injection a 2 hours and again at 6 hours after intracerebral hemorrhage induced as described in Example 3. Each mouse was tested for vestibulomotor function by rotorod latency measured before and after induced intracerebral hemorrhage as described in Example 3.

[2] = test system: mixed glial primary culture; experiment: Suppression of TNF-α release in mixed glial primary culture after exposure to LPS; format: cell-based, murine; details: FIGS. 11A and 11B
Method: In vitro methods have been developed using cultured cells for evaluating the ability of a compound, such as a peptide, to suppress glial activation. Laskowitz et al., (2001) Exp. Neurol., 167:74-85. Glial cell cultures were grown and maintained under standard conditions. Cultured glial cells may include primary murine mixed glial cell cultures, murine BV-2 microglial cells, and human C3 microglial cells. Adherent glial cells were washed with OptiMEM® medium (available from Invitrogen Corp.) to remove serum and covered with fresh OptiMEM® medium containing peptide.
Larger peptides or proteins may need to be tested at higher concentrations to observe measurable suppression of glial activation. If using primary murine cells and BV-2 cells, cells are stimulated with 100 ng/ml E. coli LPS (available from Sigma-Aldrich Co.), and supernatant is collected six hours after LPS stimulation and assayed for nitrite (using a colorimetric Griess reagent system, available from Promega Corp.) and/or TNF-α (using a solid-phase ELISA kit, available from Invitrogen Corp.). If using human C3 cells, cells are stimulated with 200 μg/ml polyinosinic acid 5′ (available from Sigma-Aldrich Co.), and supernatant is collected 5 days after stimulation and assayed for TNF-α using a solid-phase ELISA kit (available from Invitrogen Corp.).
The protective activity against brain injury-downregulating CNS inflammatory response was determined for ApoE mimetic peptides, VR-55 (SEQ ID NO: 4), VL-5-1 (SEQ ID NO: 5) and VL-5-3 (SEQ ID NO: 10).

[3] = test system: primary rat neuronal cortical culture exposed to NMDA; experiment: Neuroprotection from NMDA mediated cell death in primary neuronal culture (LDH release); format: cell-based
Method: Peptides of 5 amino acids in length were applied to one or more samples of cells in parallel at concentrations ranging from about 0 to about 50 μM, such as 0.3, 3, and 30 μM. The peptides AL-10-1 (SEQ ID NO:18) and VL-17-9 (SEQ ID NO:19), which are longer peptides (12 amino acids each) were used as negative and positive controls, respectively. A series of peptides were screened in primary rat neuronal cortical culture exposed to NMDA using the method described in Aono et al., Neuroscience (2003) 116:437 and Aono et al., Neurobiology of Disease (2002) 11:214, both of which are incorporated by reference in their entirety (see Table 2). Neuroprotection from NMDA mediated cell death in primary neuronal culture was expressed as percentage decrease in LDH, 24 hours after exposure to NMDA compared to vehicle treated cultures (Table 2). LDH release is indicative of neuronal death after NMDA exposure. The peptide VR-55 (SEQ ID NO:4) reduced NMDA mediated excitotoxic cell death by approximately 19% at a concentration of 1 μM. […] The positive control peptide VL-17-9 reduced LDH release by 31%.
Dose response of the neuroprotection from NMDA excitotoxicity in primary neuronal culture was determined for ApoE mimetic peptide VR-55 (SEQ ID NO: 4). […] “0” indicates less than 5% suppression; “+” indicates 5-10% suppression; “++” indicates 11-20% suppression; and “+++” indicates greater than 20% suppression. In addition to VL-17-9, several other candidates had greater than 20% suppression, including VR-55, VL-5-1, VL-5-2 and VR-52.

Ac-VSRRR-NH2 [VR-55, Ac-VSRRR-NH2]
durability of effect on rotorod latency [1]: durable through the five-day testing period
vestibulomotor performance (rotorod latency) compared to carrier ([1]; FIG. 5): improved vestibulomotor performance
release of inflammatory cytokine TNF-α [2]: inhibition of microglial TNF-α secretion; also recorded: suppress the release of inflammatory cytokine TNF-α
dose response of percent suppression of LDH release after NMDA exposure ([3]; FIG. 6): dose dependent
percentage decrease in LDH, 24 hours after exposure to NMDA compared to vehicle treated cultures ([3]; peptide 0.1 μM): −2.85%
percentage decrease in LDH, 24 hours after exposure to NMDA compared to vehicle treated cultures ([3]; peptide 0.3 μM): 1.50%
suppression of LDH release, cumulative data (class) ([3]; peptide 1 μM, cumulative data): +++ (greater than 20% suppression)
percentage decrease in LDH, 24 hours after exposure to NMDA compared to vehicle treated cultures ([3]; peptide 3 μM): 15.91%
